This note sets out measurements from patent EP2767543B1, “SALTS OF CARBAMOYL PHOSPHONIC ACID ESTERS WHICH ACT AS SELECTIVE INHIBITORS OF HUMAN IMMUNODEFICIENCY VIRUS HIV-1 PRODUCTION” (Aktsionernoe Obshcestvo "Proizvodstvenno-Kommercheskaya …, priority 2011, dated 2013).

pIC50: −log10 of the molar value.

In data set [1] the test system is HIV-1, GVK4046. Description: HIV-1 reproduction inhibition in MT-4 cell culture (p24 ELISA and MTT cell vitality, day 4). It is filed as cell-based. The note with it: HIV-1, GVK4046 in MT-4 cell culture, 4 days; read-out: ID50 (the source's name). On the procedure:
The HIV inhibition study includes cultivation of primary infective MT-4 line lymphoid cells over the studied compounds, the ultimate concentrations of which in the culture medium range from 0.001 µg/ml to 100 µg/ml, during one passage, within 4 days.
HIV reproduction inhibition in the sensitive cell culture is determined by the reduction in p24 virus-specific protein accumulation (according to the enzyme-linked immunosorbent assay) and by the increase in cell vitality over the drug as compared with the reference cells, on Day 4 of the cultivation, using 3-(4.5-dimethylthiazole-2-yl-)-2,5-diphenyl tetrazolium (MTT) bromide staining.
The impact of the studied compounds on HIV-1 reproduction in MT-4 cell culture is studied using a well-known technique.
(ELISA stands for enzyme-linked immunosorbent assay.)

In data set [2] the test system is MT-4 cells. As to the kind of experiment: Cytotoxicity assessment in MT-4 cells (MTT / formazan method, 4 days). The following applies: concentration that reduces MT-4 cell vitality by 50%, day 4, MTT. In kind it is cell-based. On the procedure:
Cytotoxicity of a drug is estimated by adding its delution in RPMI-1640 serum-free medium to MT-4 cell suspension placed in cavities of the 96-cavity board (Cel-Cult, England), up to the ultimate concentrations of 0.001-100 µg/ml (three cavities per dose), with subsequent cultivation at 37°C within 4 days. The inoculation concentration is 0.5x10^6 cell particles in 1 mm. The cells, to which the drug was not added and was substituted with the same quantity of the serum-free medium, serve as the reference. The cell vitality is counted on Day 4 of cultivation, using the formazan method (intravital staining of MTT cells). Toxicity of different drug doses is determined by the cell vitality as compared with the reference cells; the dose-dependent curve is built using obtained data, and the concentration that reduces cell vitality by 50% (CD50) is determined. […] It is also noteworthy that 50% toxic doses exceed HIV-1 effective doses by a factor of 2-4 (see Table 1) .

The nature of data set [3]: Stability analysis of 1% water solutions at room temperature. It is filed as physicochemical. The note with it: within a month. On the procedure: The stability analysis for the obtained compounds in the form of 1% water solutions at room temperature was carried out. The acid form of the carbamoyl phosphonate and ammonia salt degrade by 40% and 2%, respectively, within a month; no destruction products were detected for the rest of salts within a month.

Consider `Cc1cn([C@H]2C[C@H](N=[N+]=[N-])[C@@H](COP(=O)(O)C(N)=O)O2)c(=O)[nH]c1=O` [Acid form (reference), [(2S,3S,5R)-3-azido-5-(5-methyl-2,4-deoxythymidine-1-yl)oxolan-2-yl]methyl ester of carbamoyl phosphonic acid, reference compound], for which the pIC50 in data set [1] was 6.10. Besides, the CD50 in data set [2] is given as 2.6 µM. The compound further gave a degrade in data set [3] of 40%.
